The values below come from patent US9926375B2, “Anti-endoglin antibodies and uses thereof” (Tracon Pharmaceuticals, Inc., priority 2014, dated 2018).

Experiment [1] deals with NASH mice. Kind of experiment: Murine model of non-alcoholic steatohepatitis (NASH; STZ and high fat diet). The class given is in vivo, mouse. The text has this: The purpose of this study was to examine the protective effects of endoglin antibodies on a murine model of NASH.
NASH was established by a single subcutaneous injection of STZ (Sigma, USA) after birth and feeding with a high fat diet (HFD; CLEA Japan, Japan) ad libitum after 4 weeks of age (day 28±2).
Randomization of mice into 6 groups of 10 mice was done at 9 weeks of age (day 63±2), the day before the start of treatment.
Group 3 (Positive control; Temlisartan Group): Ten NASH mice were be orally administered pure water supplemented with telmisartan at a dose of 10 mg/kg once daily from day 63 to 84.
Group 4 (Antibody M1043: M1043 Group): Ten NASH mice were intravenously administered vehicle supplemented with Antibody M1043 at a dose of 10 mg/kg twice weekly at day 63, 66, 70, 73, 77 and 80.
Group 5 (Antibody TRC105; TRC105 Group): Ten NASH mice were intravenously administered vehicle supplemented with Antibody TRC105 at a dose of 10 mg/kg twice weekly at day 63, 66, 70, 73, 77 and 80.
Group 6 (Antibody TRC205; TRC205 Group): Ten NASH mice were intravenously administered vehicle supplemented with Antibody TRC205 at a dose of 10 mg/kg twice weekly at days 63, 66, 70, 73, 77 and 80.
Mice in all groups were terminated for the following assays at 12 weeks of age.
H&E staining of liver tissue was conducted to estimate NAFLD Activity score.
Total NAS score represents the sum of scores for steatosis, lobular inflammation, and ballooning, and ranges from 0-8. Diagnosis of NASH (or, alternatively, fatty liver not diagnostic of NASH) should be made first, then NAS is used to grade activity. In the reference study, NAS scores of 0-2 occurred in cases largely considered not diagnostic of NASH, scores of 3-4 were evenly divided among those considered not diagnostic, borderline, or positive for NASH. Scores of 5-8 occurred in cases that were largely considered diagnostic of NASH.
Statistical tests were performed using Bonferroni Multiple Comparison Test. P values<0.05 were considered statistically significant.

For experiment [2], the system named is BLM-induced pulmonary fibrosis model mice. Kind of experiment: Bleomycin-induced pulmonary fibrosis model. The class given is in vivo, mouse. Conditions: vs isotype-control antibody group (isotype-control vs disease control group); day 21; Bonferroni, P<0.05. Here is the method: Pathogen-free 7 weeks old female C57BL/6J mice were obtained from Japan SLC, Inc. (Japan). At day 0, 60 mice were induced to develop pulmonary fibrosis by a single intratracheal administration of bleomycin sulphate (BLM, Nippon Kayaku, Japan) in saline at a dose of 3 mg/kg, in a volume of 50 μL per animal using Microsprayer® (Penn-Century, USA).
BLM-induced pulmonary fibrosis model mice were randomized into 4 groups of 12 mice based on the body weight on the day before the start of treatment.
Group 3 (M1043 Antibody): Twelve BLM-induced pulmonary fibrosis model mice were intravenously administered vehicle supplemented with M1043 at a dose of 10 mg/kg twice weekly at day 7, 10, 14 and 17.
Group 4 (TRC105 human/mouse chimeric antibody): Twelve BLM-induced pulmonary fibrosis model mice were intravenously administered vehicle supplemented with TRC105 at a dose of 10 mg/kg twice weekly at day 7, 10, 14 and 17.
Group 5 (BIBF1120 inhibitor for Idiopathic Pulmonary Fibrosis—positive control, Boehringer Ingelheim): Twelve BLM-induced pulmonary fibrosis model mice were orally administered 1% CMC supplemented with BIBF1120 at a dose of 100 mg/kg once daily from day 7 to 21. […]
Histological analysis of lung sections was conducted by practitioners who are not aware of the Group identity. Masson's Trichrome staining is conducted and an Ashcroft Score estimate was determined. […]

Experiment [3] addresses T1, human endoglin (Homo sapiens, UniProt P17813).
T1 sequence (P17813 26-658): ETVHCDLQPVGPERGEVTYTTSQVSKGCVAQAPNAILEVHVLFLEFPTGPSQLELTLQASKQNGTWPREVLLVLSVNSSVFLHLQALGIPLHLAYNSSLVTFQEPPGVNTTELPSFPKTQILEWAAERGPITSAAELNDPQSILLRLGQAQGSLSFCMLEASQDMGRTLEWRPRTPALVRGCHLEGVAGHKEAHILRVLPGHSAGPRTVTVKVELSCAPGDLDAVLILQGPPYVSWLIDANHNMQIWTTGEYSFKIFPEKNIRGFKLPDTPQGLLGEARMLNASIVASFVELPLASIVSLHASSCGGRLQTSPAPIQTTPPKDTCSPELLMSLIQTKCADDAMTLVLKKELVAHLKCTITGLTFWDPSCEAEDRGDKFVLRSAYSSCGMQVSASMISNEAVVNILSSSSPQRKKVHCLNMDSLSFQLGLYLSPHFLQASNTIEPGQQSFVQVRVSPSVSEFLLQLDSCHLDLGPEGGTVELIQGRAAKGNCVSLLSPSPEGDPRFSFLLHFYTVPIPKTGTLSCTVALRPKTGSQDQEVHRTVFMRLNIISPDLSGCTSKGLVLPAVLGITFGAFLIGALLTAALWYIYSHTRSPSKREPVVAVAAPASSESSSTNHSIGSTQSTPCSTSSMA
Conditions: statement in description; cited from earlier work.

Experiment [4] deals with T2, mouse endoglin (Mus musculus, UniProt Q63961).
T2 sequence (Q63961 27-653): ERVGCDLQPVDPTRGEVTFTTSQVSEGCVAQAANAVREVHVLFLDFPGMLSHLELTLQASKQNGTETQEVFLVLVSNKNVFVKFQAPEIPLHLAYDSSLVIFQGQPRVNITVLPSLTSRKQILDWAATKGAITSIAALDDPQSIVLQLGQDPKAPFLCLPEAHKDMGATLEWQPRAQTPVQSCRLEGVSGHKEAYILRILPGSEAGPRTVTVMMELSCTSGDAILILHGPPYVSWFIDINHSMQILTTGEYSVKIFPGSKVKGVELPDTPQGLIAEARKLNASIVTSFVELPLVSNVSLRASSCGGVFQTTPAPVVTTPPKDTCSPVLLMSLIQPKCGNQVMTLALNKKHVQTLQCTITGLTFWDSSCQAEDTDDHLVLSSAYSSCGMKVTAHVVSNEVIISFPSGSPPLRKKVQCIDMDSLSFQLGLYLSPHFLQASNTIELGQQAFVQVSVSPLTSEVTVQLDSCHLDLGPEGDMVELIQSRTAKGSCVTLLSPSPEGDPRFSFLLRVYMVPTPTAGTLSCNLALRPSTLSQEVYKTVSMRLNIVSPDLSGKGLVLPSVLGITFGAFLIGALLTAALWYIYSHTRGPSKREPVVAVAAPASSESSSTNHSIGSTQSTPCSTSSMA
The experiment in a line: Inhibition of mouse BMP binding to mouse endoglin (statement, no method). The note with it: statement in description.

The target in experiment [5] is T3, mouse endoglin (Mus musculus, UniProt Q63961).
T3 construct: purchased R&D Systems 1320-EN-025
T3 sequence (Q63961 27-581 limits assumed): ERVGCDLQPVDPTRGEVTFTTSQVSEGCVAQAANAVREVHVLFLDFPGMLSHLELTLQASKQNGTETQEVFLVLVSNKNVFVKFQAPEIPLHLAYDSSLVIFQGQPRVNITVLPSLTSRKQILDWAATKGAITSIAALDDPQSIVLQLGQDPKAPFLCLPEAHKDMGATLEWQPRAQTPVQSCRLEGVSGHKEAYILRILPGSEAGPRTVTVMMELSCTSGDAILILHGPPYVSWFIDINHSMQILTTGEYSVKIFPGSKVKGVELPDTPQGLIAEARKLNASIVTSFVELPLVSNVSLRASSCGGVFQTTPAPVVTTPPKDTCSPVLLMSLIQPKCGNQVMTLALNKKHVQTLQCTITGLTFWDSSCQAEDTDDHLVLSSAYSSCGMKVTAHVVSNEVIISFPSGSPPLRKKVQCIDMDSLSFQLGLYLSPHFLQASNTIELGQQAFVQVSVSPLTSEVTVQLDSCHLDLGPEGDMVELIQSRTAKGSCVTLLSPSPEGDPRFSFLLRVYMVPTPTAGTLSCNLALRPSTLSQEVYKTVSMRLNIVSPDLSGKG
Kind of experiment: Competition ELISA of mouse BMP9 against biotinylated M1043 for binding to mouse endoglin. The note with it: 30 μg/ml to 0.004 μg/ml competitor; biotinylated M1043 40 ng/ml. Here is the method: The ability of mouse BMP9 to compete with the rat antibody M1043 for binding to mouse endoglin was determined by competition ELISA as follows: 200 μg of M1043 antibody was biotinylated with a Lightning-Link biotinylation kit (Innova Biosciences, Cat. No. 704-0010) according to the manufacturers recommendations. Nunc Immuno MaxiSorp 96 well flat bottom plates (Fisher Cat. No. DIS-971-030J) were coated with mouse endoglin (R&D Systems, Cat. No. 1320-EN-025) at 1 μg/ml in PBS overnight at 4° C. The following day the plate was washed three times with PBST before blocking with PBST/3% Marvel at room temperature for 1 hour. A threefold dilution series (30 μg/ml to 0.004 μg/ml) of mouse BMP9 (R&D Systems, Cat. No. 5566-BP-010) or an irrelevant rat IgG1 was mixed with a fixed concentration of biotinylated M1043 (40 ng/ml), added to the plate and incubated for 1 hour at room temperature. Binding of the biotinylated antibody was detected via streptavidin-HRP (Sigma, Cat. No. 55512) and TMB substrate (Sigma, Cat. No. T0440). OD450 nm values were measured on a Dynex MRX TCII plate reader.
On the technique in general: An ELISA detects its analyte on a solid surface through an enzyme-linked reagent.

Setting [6] is: liver gene expression, mean ± SD, Normal-Vehicle 1.0.

For “TRC105: human murine chimeric IgG1 monoclonal antibody that binds endoglin; VL/VH SEQ ID NOS. 1 and 39”, in experiment [1] (Bonferroni, P<0.05), the “Liver triglyceride contents compared with the NASH-Vehicle group” value is “tended to decrease”, the “NAS compared with the NASH-Vehicle group” value is “tended to decrease in NAS”, the “Serum alanine aminotransferase (ALT) levels compared with the NASH-Vehicle group” value is recorded as “no significant difference” and the “Serum alkaline phosphatase (ALP) levels compared with the NASH-Vehicle group” value is on record as “tended to decrease”. In addition, in experiment [1] (Bonferroni, P<0.05), the “Tissue inhibitor of metalloproteinase-1 mRNA expression levels compared with the NASH-Vehicle group” value is listed as “significantly up-regulated” and the “Tumor necrosis factor-alpha mRNA expression levels compared with the NASH-Vehicle group” value is listed as “significantly up-regulated”. Moreover, in experiment [1] (F4/80 immunostaining, macrophage marker), the “F4/80-positive signals and cells in liver compared with the NASH-Vehicle group” value was “Lower F4/80-positive signals and positive cells”. Moreover, in experiment [1] (setting [6]), the “Alpha-SMA mRNA expression” value amounted to 1.7 ± 0.7, the “MCP-1 mRNA expression” value stood at 5.7 ± 4.2, the “TIMP-1 mRNA expression” value was found to be 25.4 ± 23.0 and the “TNF-α mRNA expression” value was found to be 12.9 ± 9.5. Besides, in experiment [1] (mean ± SD), the Liver triglyceride turned out to be 31.1 ± 20.3 mg/g liver, the “Serum ALP” value is on record as 291 ± 119 U/L, the “Serum ALT” value was found to be 62 ± 57 U/L and the “Serum AST” value is 204 ± 205 U/L. This molecule came in with a Sirius red-positive area in experiment [1] (mean ± SD, liver sections) of 0.92 ± 0.20%. Also, the “NAS (NAFLD Activity score)” value in experiment [1] (mean ± SD, range 0-8, 10 mg/kg) is 4.4 ± 1.4. Moreover, the “Steatosis score 0, number of mice” value in experiment [1] (score 0 = <5%, 12 weeks of age) came to 1. In addition, the “Hepatocyte ballooning score 0, number of mice” value in experiment [1] (score 0 = None) came out at 3. The “Steatosis score 1, number of mice” value in experiment [1] (score 1 = 5-33%) is 6. For the same molecule, the “Lobular inflammation score 1, number of mice” value in experiment [1] (score 1 = <2 foci/200x) worked out at 1. Moreover, the “Lobular inflammation score 2, number of mice” value in experiment [1] (score 2 = 2-4 foci/200x) is on record as 5. Further, the “Steatosis score 2, number of mice” value in experiment [1] (score 2 = >33-66%) was found to be 1. Also, in experiment [1] (score 2 = Many cells/prominent ballooning), the “Hepatocyte ballooning score 2, number of mice” value is given as 5. Further, in experiment [1] (score 3 = >4 foci/200x), the “Lobular inflammation score 3, number of mice” value was determined as 2. In experiment [2], the “Ashcroft score, comparison between groups” value is “significantly lower”. Further, in experiment [3], the “Effect on human BMP binding to human endoglin” value is recorded as “competitively inhibits human BMP binding”. In experiment [4], the “Effect on mouse BMP binding to mouse endoglin” value was “dose not prevent the binding of mouse BMP to mouse endoglin”.

B1: mouse BMP9: mouse BMP9 (R&D Systems, Cat. No. 5566-BP-010), endoglin ligand (protein)
chain: STGASSHCQKTSLRVNFEDIGWDSWIIAPKEYDAYECKGGCFFPLADDVTPTKHAIVQTLVHLKFPTKVGKACCVPTKLSPISILYKDDMGVPTLKYHYEGMSVAECGCR
Consider B1, for which the “Competition with biotinylated M1043 for binding to mouse endoglin” value in experiment [5] is “competed with biotinylated M1043 for binding to mouse endoglin”.
